# According to patent publication US8431530B2, “Compositions and methods for treating aids or cancer by inhibiting the secretion of microparticles” (priority 2009, dated 2013):
# Key:
# [1] = lower doses could be less toxic; cited from earlier work
# human tumor cell lines = conditions: cited from earlier work
# Mortalin = Mortalin (Homo sapiens, UniProt P38646); conditions: literature; inactivates chaperone function; cited from earlier work
# pNL4-3 in 293 cells = assay: p24 assay of virion production after pNL4-3 co-transfection; assay type: cell-based, HIV; conditions: for p24: co-transfected with pNL4-3; for Effect (a/b): p24 of sample / p24 of pNL4-3 + sM1
# Method: (§1) pNL4-3 is a clone containing the viral genome. Transfection into cells allows expression of the viral genome and ultimately virion formation and release. The amount of virion production in the extracellular supernatant is measured through p24 protein (viral protein). Samples were collected at 48 hours and 96 hours post-infection.
# (§2) At 48 hr postinfection two plates in each group were removed and analyzed by: • a. p24 assay • b. Nef assay • c. Infectivity assay • At 96 hr postinfection the other two plates in each group were removed and analyzed by: • a. p24 assay • b. Nef assay • c. Infectivity assay
# [2] = test system: HIV-1 Nef-GFP secretion, cell line H; assay: HIV-1 Nef-GFP induced secretion, fluorescent plate reader assay; assay type: cell-based; conditions: HIV-1 Nef-GFP (sM1 column head prints GFP/sM1)
# [3] = test system: Gag-GFP + HIV-1wtNef-RFP secretion, Jurkat; assay: Gag-GFP secretion in presence of wtNef-RFP, fluorescent plate reader assay; assay type: cell-based; conditions: Jurkat, Gag-GFP + HIV-1wtNef-RFP + peptide, 48 hours
# Method: (§3) Cells were transfected with the pQBI-HIV Gag-GFP construct, wtNef-RFP, and either the antagonist (SMRwt peptide), the negative control SMRmt peptide, or a random peptide sM1 with Chariot for 48 hours. The conditioned supernatants from these cultures were assayed for GFP fluorescence by plate reader.
# [4] = test system: Gag-GFP + HIV-1wtNef-RFP secretion, THP-1 Monocyte; assay: as above; assay type: cell-based; conditions: Gag-GFP + HIV-1wtNef-RFP + peptide, 48 hours
# Method: as §3
# [5] = test system: NefGFP release from HEK293 cells; assay: Nef-GFP co-transfection secretion assay, GFP fluorescence of supernatant; assay type: cell-based; conditions: HEK293, 0.5 μg Nef-GFP + 0.5 μg peptide, Chariot, 48 h; relative to NefGFP+sM1 (100%)
# Method: Therefore, a set of co-transfection experiments were performed. HEK293 cells were co-transfected with 0.5 μg of pQBI-HIV Nef-GFP (expresses wild type Nef protein) and either 0.5 μg of HIV-1 Nef SMRwt or SMRmut peptide or sM1 peptide (a totally random control peptide, ALAETCQNAWA (SEQ ID NO: 7)) with Chariot. Briefly, the wild-type Nef-GFP clone and the SMR peptides were complexed with Chariot reagent for 30 minutes at RT. The DNA/peptide/Chariot complex was added to HEK293 cells in serum-free media, and the cells were plated. Following incubation for 2 hours at 37° C., media with serum was added to the dish, and the cells were incubated at 37° C. for 48 h. The media was then collected and assayed for secretion using a spectrofluorimeter. The conditioned supernatants from these cultures were assayed for GFP fluorescence by plate reader.
# [6] = test system: HIV-1 Gag-GFP secretion, HEK293; assay: HIV-1 Gag-GFP induced secretion, fluorescent plate reader assay; assay type: cell-based; conditions: HEK293, HIV-1 Gag-GFP (sM1 column head prints GFP/sM1), 0.5 μg peptide, 48 hours
# Method: (§4) Cells were co-transfected with 0.5 μg of pQBI-HIV Gag-GFP (expresses wild type Gag protein) and either 0.5 μg of HIV-1 Nef SMRwt, SMRmut peptide, sM1 peptide or untransfected controls with Chariot for 48 hours. The conditioned supernatants from these cultures were assayed for GFP fluorescence by plate reader.
# [7] = test system: HIV-1 Gag-GFP secretion, Jurkat; assay: as above; assay type: cell-based; conditions: HIV-1 Gag-GFP (sM1 column head prints GFP/sM1), 0.5 μg peptide, 48 hours
# Method: as §4
# [8] = test system: HIV-1 Gag-GFP secretion, U937; assay: as above; assay type: cell-based; conditions: U937, HIV-1 Gag-GFP (sM1 column head prints GFP/sM1), 0.5 μg peptide, 48 hours
# Method: as §4
# [9] = test system: HIV-1 Gag-GFP secretion, THP-1; assay: as above; assay type: cell-based; conditions: THP-1, HIV-1 Gag-GFP (sM1 column head prints GFP/sM1), 0.5 μg peptide, 48 hours
# Method: as §4
# pNL4-3 in Jurkat cells = assay: p24 assay of virion production after pNL4-3 co-transfection; assay type: cell-based, HIV; conditions: Jurkat; for p24: co-transfected with pNL4-3; for Effect (a/b): p24 of sample / p24 of pNL4-3 + sM1
# Method: I. Jurkat cells were co-transfected as shown below: (transfection efficiency 30-40% by Chariot Kit):
# as §1, §2
# Sequence of Mortalin (P38646 47-679): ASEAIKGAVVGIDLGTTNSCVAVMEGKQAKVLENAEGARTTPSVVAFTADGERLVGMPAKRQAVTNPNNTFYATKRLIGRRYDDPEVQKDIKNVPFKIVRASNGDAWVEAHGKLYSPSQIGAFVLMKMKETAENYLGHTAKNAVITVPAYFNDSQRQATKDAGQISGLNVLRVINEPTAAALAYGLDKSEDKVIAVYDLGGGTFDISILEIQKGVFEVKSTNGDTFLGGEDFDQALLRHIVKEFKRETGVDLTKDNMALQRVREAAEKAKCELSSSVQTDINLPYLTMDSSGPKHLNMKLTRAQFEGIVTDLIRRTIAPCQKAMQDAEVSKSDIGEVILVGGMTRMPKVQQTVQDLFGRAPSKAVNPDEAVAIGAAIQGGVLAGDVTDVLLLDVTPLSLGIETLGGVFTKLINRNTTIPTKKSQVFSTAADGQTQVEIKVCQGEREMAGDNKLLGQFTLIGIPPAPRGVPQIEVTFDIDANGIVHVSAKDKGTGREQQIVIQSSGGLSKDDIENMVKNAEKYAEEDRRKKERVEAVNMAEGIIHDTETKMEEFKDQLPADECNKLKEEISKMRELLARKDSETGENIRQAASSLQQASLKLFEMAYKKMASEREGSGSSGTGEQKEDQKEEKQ
compound,measurement,setting,value
CCn1c(=O)/c(=C2\Sc3ccccc3N2C)s/c1=C\c1cccc[n+]1CC.[Cl-] [MKT-077],toxicity in clinical trials,[1],renal toxicity
same,death of cancer cells,human tumor cell lines; literature (Deocaris et al. 2007),causes selective death of cancer cells
same,senescence in human tumor cell lines,human tumor cell lines; literature,inducing senescence
same,binding to Mortalin,Mortalin,binds to the nucleotide-binding domain (NBD) of Mortalin
"ALAETCQNAWA [sM1, a totally random control peptide]",p24,"pNL4-3 in 293 cells; 293, 48 hr",45 pg/mL
same,Effect (a/b),"pNL4-3 in 293 cells; 293, 48 hr",1.0
same,p24,"pNL4-3 in 293 cells; 293, 96 hr",960 pg/mL
same,Effect (a/b),"pNL4-3 in 293 cells; 293, 96 hr",1
same,"Increase in Secretion (relative to untransfected cells), exp condition/UT",[2],1.05x
same,Secretion relative to untransfected cells,[3]; first line,61.99x
same,Secretion relative to untransfected cells,[3]; second line (not explained),40.36x
same,Secretion relative to untransfected cells,[4]; first line,43.11x
same,Secretion relative to untransfected cells,[4]; second line (not explained),20.51x
same,release of NefGFP into the extracellular supernatant (GFP fluorescence),[5],no effect
same,"Increase in Secretion (relative to untransfected cells), exp condition/UT",[6],2.05x
same,"Increase in Secretion (relative to untransfected cells), exp condition/UT",[7],1.09x
same,"Increase in Secretion (relative to untransfected cells), exp condition/UT",[8],1.05x
same,"Increase in Secretion (relative to untransfected cells), exp condition/UT",[9],0.85x
same,p24,pNL4-3 in Jurkat cells; 48 hr,0 pg/mL
same,Effect (a/b),pNL4-3 in Jurkat cells; 48 hr,1
same,p24,pNL4-3 in Jurkat cells; 96 hr,30 pg/mL
same,Effect (a/b),pNL4-3 in Jurkat cells; 96 hr,1
